{"source": "patent US9221836B2", "about": "“Heterocyclic compound and use thereof” (TAKEDA PHARMACEUTICAL COMPANY LIMITED, priority 2008, dated 2015)", "key": {"[1]": {"biological_target": "T1, plasma renin activity (PRA) (Macaca fascicularis, UniProt Q6DLS0)", "T1 sequence (Q6DLS0 67-406)": "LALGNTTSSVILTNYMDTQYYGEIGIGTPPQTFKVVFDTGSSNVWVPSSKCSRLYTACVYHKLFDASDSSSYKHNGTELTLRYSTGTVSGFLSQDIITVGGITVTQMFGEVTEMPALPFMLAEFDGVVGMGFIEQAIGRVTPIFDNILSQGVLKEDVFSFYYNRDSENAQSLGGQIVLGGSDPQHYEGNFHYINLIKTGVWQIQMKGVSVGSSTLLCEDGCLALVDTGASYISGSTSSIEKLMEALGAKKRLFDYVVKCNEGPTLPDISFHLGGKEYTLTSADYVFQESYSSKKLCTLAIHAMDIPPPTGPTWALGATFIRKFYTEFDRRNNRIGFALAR", "settings": "male Macaca fascicularis; 1 mg/kg orally in 0.5% methylcellulose; plasma 4 hr after administration; amended with vehicle group", "procedure": "Male macaca fascicularis was used. The blood samples were collected from femoral vein at the time points of before drug administration and 4 hr after drug administration (EDTA-2Na^+ at final concentration of 7.5 mmol/L was used as an anticoagulant). […] The drug was dissolved in 0.5% methylcellulose and orally administered at 1 mg/kg. […] PRA was calculated by the following formula.\nX37° C.: angiotensin I concentration for incubation at 37° C.\nX4° C.: angiotensin I concentration for incubation at 4° C.\nPRA at each time point after drug administration was calculated as percentage relative to the value before administration and taken as PRA %. The renin inhibitory activity of the drug administration group was calculated as an inhibitory rate by amending the PRA % at each time point after drug administration with PRA % of the vehicle group."}, "Human renin": {"biological_target": "T2, Human renin (Homo sapiens, UniProt P00797)", "T2 sequence (P00797 67-406)": "T1 sequence (Q6DLS0 67-406) with A2T, L148I, A169S", "experiment": "Human renin inhibition, angiotensin I quantified by EIA", "settings": "read-out: Human renin inhibitory activity: inhibitory activity (%) at 0.1 μM", "procedure": "(6) Measurement of Renin Inhibition Value\nAs a substrate for renin activity measurement, the angiotensinogen mentioned in (5) above was used. 1 μl each of the test compound (containing 100% DMSO) was added to each well of a 384-well plate (ABgene). Renin was diluted with a buffer solution for reaction (20 mM sodium phosphate (pH 7.4)) to a concentration of 57 pM, and 14 μl each of the dilution was added to each well. The dilution was left to stand at 37° C. for 10 min, and then 5 μl of each of a 6 μM solution of substrate angiotensinogen was added to each well to initiate the reaction. […] The amount of angiotensin I produced by an enzyme reaction was quantified by Enzyme Immuno Assay (EIA) described below.\nAnti-angiotensin I antibody (Peninsula Laboratories Inc.) diluted 5,000-fold with PBS was added to each well of a 384 well black plate (Nalge Nunc International Co., Ltd.) by 25 μl, and left standing overnight at 4° C. to immobilize the antibody in the plate. The antibody solution was removed, PBS solution (100 μl) containing 1% BSA was added to each well, and the mixture was left standing at room temperature for 2 hr for blocking. The blocking solution was removed, and each well was washed 5 times with 100 μl of 0.05% Tween20-PBS. […] Then, a biotinated angiotensin I solution (AnaSpec, 15 μl) prepared to 1.6 nM with a buffer [20 mM tris-hydrochloric acid (pH 7.4), 150 mM sodium chloride, 0.01% BSA, 0.05% Tween20] was added to each well, mixed with a plate mixer and left standing at room temperature for 1 hr. The solutions were removed from each well, and each well was washed 5 times with 100 μl of 0.05% Tween20-PBS. Horseradish peroxydase Streptavidin (PIERCE Biotecnology inc., 25 μl) diluted to 100 ng/ml with a buffer [20 mM tris-hydrochloric acid (pH 7.4), 150 mM sodium chloride, 0.1% BSA, 0.05% Tween 20] was added to each well and the mixture was left standing at room temperature for 30 min. The solutions were removed from each well, and each well was washed 5 times with 100 μl of 0.05% Tween20-PBS. SuperSignal ELISA femto Maximum Sensitivity Substrate (PIERCE Biotecnology Inc.) was added by 25 μl and luminescence intensity was measured by EnVision (Perkin Elmer Inc.). An analytical curve was drawn from the luminescence intensity of wells containing an angiotensin I standard solution, and the amount of angiotensin I produced by an enzyme reaction was calculated and used as an index of renin activity."}}, "note": "Where a chain is given by its changes, count along the chain named. Structures can show the parent of a compound that is named as a salt.", "data": [{"smiles": "COCCCCn1c(C(=O)N(CC(C)C)[C@@H]2CNC[C@H](C(=O)OCc3oc(=O)oc3C)C2)nc2ccccc21", "note": "[Example 7, (5-methyl-2-oxo-1,3-dioxol-4-yl)methyl (3R,5S)-5-[{[1-(4-methoxybutyl)-1H-benzimidazol-2-yl]carbonyl}(2-methylpropyl)amino]piperidine-3-carboxylate dihydrochloride]", "values": [{"measurement": "Macaca fascicularis plasma renin activity: PPA inhibitory activity (%, n = 3-7)", "setting": "[1]", "result": 93, "unit": "%"}]}, {"smiles": "COCCCCn1c(C(=O)N(CC(C)C)[C@@H]2CNC[C@H](C(=O)N3CCOCC3)C2)nc2ccccc21", "note": "[Example 10, 1-(4-methoxybutyl)-N-(2-methylpropyl)-N-[(3S,5R)-5-(morpholin-4-ylcarbonyl)piperidin-3-yl]-1H-benzimidazole-2-carboxamide dihydrochloride]", "values": [{"measurement": "Macaca fascicularis plasma renin activity: PPA inhibitory activity (%, n = 3-7)", "setting": "[1]", "result": 72, "unit": "%"}]}, {"smiles": "COCCCCn1c(C(=O)N(CC(C)C)[C@@H]2CNC[C@H](C(=O)N3CCOCC3)C2)nc2ccc(F)cc21", "note": "[Example 11, 6-fluoro-1-(4-methoxybutyl)-N-(2-methylpropyl)-N-[(3S,5R)-5-(morpholin-4-ylcarbonyl)piperidin-3-yl]-1H-benzimidazole-2-carboxamide dihydrochloride]", "values": [{"measurement": "Macaca fascicularis plasma renin activity: PPA inhibitory activity (%, n = 3-7)", "setting": "[1]", "result": 89, "unit": "%"}]}, {"smiles": "COCCCCn1c(C(=O)N(CC(C)C)[C@@H]2CNC[C@H](C(=O)N3CCCC3)C2)nc2cc(F)ccc21", "note": "[Example 18, 5-fluoro-1-(4-methoxybutyl)-N-(2-methylpropyl)-N-[(3S,5R)-5-(pyrrolidin-1-ylcarbonyl)piperidin-3-yl]-1H-benzimidazole-2-carboxamide dihydrochloride]", "values": [{"measurement": "Macaca fascicularis plasma renin activity: PPA inhibitory activity (%, n = 3-7)", "setting": "[1]", "result": 89, "unit": "%"}]}, {"smiles": "COCCCCn1c(C(=O)N(CC(C)C)[C@@H]2CNC[C@H](C(=O)N3CCCCC3)C2)nc2ccccc21", "note": "[Example 21, 1-(4-methoxybutyl)-N-(2-methylpropyl)-N-[(3S,5R)-5-(piperidin-1-ylcarbonyl)piperidin-3-yl]-1H-benzimidazole-2-carboxamide dihydrochloride]", "values": [{"measurement": "Macaca fascicularis plasma renin activity: PPA inhibitory activity (%, n = 3-7)", "setting": "[1]", "result": 85, "unit": "%"}]}, {"smiles": "COCCCCn1c(C(=O)N(CC(C)C)[C@@H]2CNC[C@H](C(N)=O)C2)nc2ccccc21", "note": "[Example 25, N-[(3S,5R)-5-carbamoylpiperidin-3-yl]-1-(4-methoxybutyl)-N-(2-methylpropyl)-1H-benzimidazole-2-carboxamide dihydrochloride]", "values": [{"measurement": "Macaca fascicularis plasma renin activity: PPA inhibitory activity (%, n = 3-7)", "setting": "[1]", "result": 79, "unit": "%"}]}, {"smiles": "COCCCCn1c(C(=O)N(CC(C)C)[C@@H]2CNC[C@H](C(=O)O)C2)nc2ccccc21", "note": "[Example 33, (3R,5S)-5-[{[1-(4-methoxybutyl)-1H-benzimidazol-2-yl]carbonyl}(2-methylpropyl)amino]piperidine-3-carboxylic acid dihydrochloride]", "values": [{"measurement": "Macaca fascicularis plasma renin activity: PPA inhibitory activity (%, n = 3-7)", "setting": "[1]", "result": 77, "unit": "%"}]}, {"smiles": "COCCCCn1c(C(=O)N(CC(C)C)[C@@H]2CNC[C@H](CO)C2)nc2ccccc21", "note": "[Example 40, N-[(3S,5R)-5-(hydroxymethyl)piperidin-3-yl]-1-(4-methoxybutyl)-N-(2-methylpropyl)-1H-benzimidazole-2-carboxamide dihydrochloride]", "values": [{"measurement": "Macaca fascicularis plasma renin activity: PPA inhibitory activity (%, n = 3-7)", "setting": "[1]", "result": 75, "unit": "%"}]}, {"smiles": "COCCCCn1c(C(=O)N(CC(C)C)[C@@H]2CNC[C@H](C(C)O)C2)nc2ccccc21", "note": "(stereo partly drawn) [Example 42, N-[(3S,5R)-5-(1-hydroxyethyl)piperidin-3-yl]-1-(4-methoxybutyl)-N-(2-methylpropyl)-1H-benzimidazole-2-carboxamide dihydrochloride]", "values": [{"measurement": "Macaca fascicularis plasma renin activity: PPA inhibitory activity (%, n = 3-7)", "setting": "[1]", "result": 70, "unit": "%"}]}, {"smiles": "COCCCCn1c(C(=O)N(CC(C)C)[C@@H]2CNC[C@H](C(O)COC)C2)nc2ccccc21", "note": "(stereo partly drawn) [Example 48, N-[(3S,5R)-5-(1-hydroxy-2-methoxyethyl)piperidin-3-yl]-1-(4-methoxybutyl)-N-(2-methylpropyl)-1H-benzimidazole-2-carboxamide dihydrochloride]", "values": [{"measurement": "Macaca fascicularis plasma renin activity: PPA inhibitory activity (%, n = 3-7)", "setting": "[1]", "result": 78, "unit": "%"}]}, {"smiles": "COCCCCn1c(C(=O)N(CC(C)C)[C@@H]2CNC[C@H](C(=O)N3CCOCC3)C2)nc2ccc(OC)cc21", "note": "[Example 60, 6-methoxy-1-(4-methoxybutyl)-N-(2-methylpropyl)-N-{(3S,5R)-5-(morpholin-4-ylcarbonyl)piperidin-3-yl}-1H-benzimidazole-2-carboxamide dihydrochloride]", "values": [{"measurement": "Macaca fascicularis plasma renin activity: PPA inhibitory activity (%, n = 3-7)", "setting": "[1]", "result": 85, "unit": "%"}]}, {"smiles": "COCCCCn1c(C(=O)N(CC(C)C)[C@@H]2CNC[C@H](C(=O)N3CCCC3)C2)nc2ccc(OC)cc21", "note": "[Example 62, 6-methoxy-1-(4-methoxybutyl)-N-(2-methylpropyl)-N-{(3S,5R)-5-(pyrrolidin-1-ylcarbonyl)piperidin-3-yl}-1H-benzimidazole-2-carboxamide dihydrochloride]", "values": [{"measurement": "Macaca fascicularis plasma renin activity: PPA inhibitory activity (%, n = 3-7)", "setting": "[1]", "result": 75, "unit": "%"}]}, {"smiles": "COCCCCn1c(C(=O)N(CC(C)C)[C@@H]2CNC[C@H]([C@@H](O)COC)C2)nc2ccccc21.Cl.Cl", "note": "[Example 73-1, N-{(3S,5R)-5-[(1R)-1-hydroxy-2-methoxyethyl]piperidin-3-yl}-1-(4-methoxybutyl)-N-(2-methylpropyl)-1H-benzimidazole-2-carboxamide dihydrochloride]", "values": [{"measurement": "Macaca fascicularis plasma renin activity: PPA inhibitory activity (%, n = 3-7)", "setting": "[1]", "result": 77, "unit": "%"}]}, {"smiles": "COCCCCn1c(C(=O)N(CC(C)C)[C@@H]2CNC[C@H]([C@H](O)COC)C2)nc2ccccc21.Cl.Cl", "note": "[Example 73-2, N-{(3S,5R)-5-[(1S)-1-hydroxy-2-methoxyethyl]piperidin-3-yl}-1-(4-methoxybutyl)-N-(2-methylpropyl)-1H-benzimidazole-2-carboxamide dihydrochloride]", "values": [{"measurement": "Macaca fascicularis plasma renin activity: PPA inhibitory activity (%, n = 3-7)", "setting": "[1]", "result": 90, "unit": "%"}]}, {"smiles": "COCCCCn1c(C(=O)N(CC(C)C)[C@@H]2CNC[C@H]([C@H](C)O)C2)nc2ccccc21.Cl.Cl", "note": "[Example 74-1, N-{(3S,5R)-5-[(1S)-1-hydroxyethyl]piperidin-3-yl}-1-(4-methoxybutyl)-N-(2-methylpropyl)-1H-benzimidazole-2-carboxamide dihydrochloride]", "values": [{"measurement": "inhibition at 0.1 µM", "setting": "Human renin", "result": 94, "unit": "%"}, {"measurement": "Macaca fascicularis plasma renin activity: PPA inhibitory activity (%, n = 3-7)", "setting": "[1]", "result": 90, "unit": "%"}]}, {"smiles": "COCCCCn1c(C(=O)N(CC(C)C)[C@@H]2CNC[C@H]([C@@H](C)O)C2)nc2ccccc21.Cl.Cl", "note": "[Example 74-2, N-{(3S,5R)-5-[(1R)-1-hydroxyethyl]piperidin-3-yl}-1-(4-methoxybutyl)-N-(2-methylpropyl)-1H-benzimidazole-2-carboxamide dihydrochloride]", "values": [{"measurement": "inhibition at 0.1 µM", "setting": "Human renin", "result": 96, "unit": "%"}, {"measurement": "Macaca fascicularis plasma renin activity: PPA inhibitory activity (%, n = 3-7)", "setting": "[1]", "result": 54, "unit": "%"}]}, {"smiles": "CC[C@H](O)[C@H]1CNC[C@@H](N(CC(C)C)C(=O)c2nc3ccccc3n2CCCCOC)C1.Cl.Cl", "note": "[Example 75-1, N-{(3S,5R)-5-[(1S)-1-hydroxypropyl]piperidin-3-yl}-1-(4-methoxybutyl)-N-(2-methylpropyl)-1H-benzimidazole-2-carboxamide dihydrochloride]", "values": [{"measurement": "inhibition at 0.1 µM", "setting": "Human renin", "result": 95, "unit": "%"}, {"measurement": "Macaca fascicularis plasma renin activity: PPA inhibitory activity (%, n = 3-7)", "setting": "[1]", "result": 86, "unit": "%"}]}, {"smiles": "CCC(O)[C@H]1CNC[C@@H](N(CC(C)C)C(=O)c2nc3ccccc3n2CCCCOC)C1", "note": "(stereo partly drawn) [Example 76, N-[(3S,5R)-5-(1-hydroxypropyl)piperidin-3-yl]-1-(4-methoxybutyl)-N-(2-methylpropyl)-1H-benzimidazole-2-carboxamide dihydrochloride]", "values": [{"measurement": "Macaca fascicularis plasma renin activity: PPA inhibitory activity (%, n = 3-7)", "setting": "[1]", "result": 79, "unit": "%"}]}, {"smiles": "COCCCCc1c(C(=O)N(CC(C)C)[C@@H]2CNC[C@H](C(=O)N3CCOCC3)C2)nnn1-c1ccccc1F.Cl", "note": "[Example 233, 1-(2-fluorophenyl)-5-(4-methoxybutyl)-N-(2-methylpropyl)-N-[(3S,5R)-5-(morpholin-4-ylcarbonyl)piperidin-3-yl]-1H-1,2,3-triazole-4-carboxamide hydrochloride]", "values": [{"measurement": "Macaca fascicularis plasma renin activity: PPA inhibitory activity (%, n = 3-7)", "setting": "[1]", "result": 67, "unit": "%"}]}, {"smiles": "COCCCCc1c(C(=O)N(CC(C)C)[C@@H]2CNC[C@H](C(=O)N3CCOCC3)C2)nnn1-c1ccccc1Cl.Cl", "note": "[Example 235, 1-(2-chlorophenyl)-5-(4-methoxybutyl)-N-(2-methylpropyl)-N-[(3S,5R)-5-(morpholin-4-ylcarbonyl)piperidin-3-yl]-1H-1,2,3-triazole-4-carboxamide hydrochloride]", "values": [{"measurement": "Macaca fascicularis plasma renin activity: PPA inhibitory activity (%, n = 3-7)", "setting": "[1]", "result": 62, "unit": "%"}]}, {"smiles": "COCCCCn1c(C(=O)N(CC2CC2)[C@@H]2CNC[C@H](C(=O)N3CCOCC3)C2)nc2ccccc21", "note": "[Example 253, N-(cyclopropylmethyl)-1-(4-methoxybutyl)-N-[(3S,5R)-5-(morpholin-4-ylcarbonyl)piperidin-3-yl]-1H-benzimidazole-2-carboxamide dihydrochloride]", "values": [{"measurement": "Macaca fascicularis plasma renin activity: PPA inhibitory activity (%, n = 3-7)", "setting": "[1]", "result": 77, "unit": "%"}]}]}
